Patent US10174202B2, “Dyes with phosphinic acid, phosphinate, phosphonate and phosphonamidate substituents as auxochromic groups and methods for preparing the same” (Max-Planck-Gesellschaft zur Foerderung der Wissenschaften …, priority 2017, dated 2019)
Where “and” joins values, the source holds several entries; their conditions need not be identical. Equal entries are not always repeated. Structures can show the parent of a compound that is named as a salt. Marks after values point to notes of the source that are not given here.

Legend:
Assay type in all cases: physicochemical
[1] = Absorption spectroscopy (UV/Vis)
Method: (§1) Absorption spectra were recorded with a Varian Cary 4000 UV-Vis double-beam spectrophotometer (Agilent Technologies, USA). For the determination of the absorption spectra, quartz cells with a 1 cm path length were used. Emission spectra and fluorescence quantum yield were obtained on a Quantaurus-QY Absolute PL quantum yield spectrometer C11347 (Hamamatsu Photonics, Japan) or on a Varian Cary Eclipse fluorescence spectrometer (Agilent Technologies, USA).

[2] = Emission spectra and fluorescence quantum yield
Method: as §1

Fluorescence lifetime = assay: Fluorescence lifetime
[3] = in acetonitrile, trifluoroacetate
[4] = in aq. PBS, pH 7.4, trifluoroacetate

Row | fluorescence lifetime (Fluorescence lifetime; in methanol + 1% v/v trifluoroacetic acid) | fluorescence emission (in words) [2] | SMILES | Absorption max. ([1]; in acetonitrile) [nm] | ε at absorption max. ([1]; in acetonitrile) | Emission max. ([2]; in acetonitrile) [nm] | QY (fluorescence quantum yield, Φfl) ([2]; in acetonitrile) | Stokes shift ([2]; in acetonitrile) | fluorescence lifetime (Fluorescence lifetime; in acetonitrile) | Absorption max. ([1]; in aq. PBS, pH 7.4) [nm] | ε at absorption max. ([1]; in aq. PBS, pH 7.4) | Emission max. ([2]; in aq. PBS, pH 7.4) [nm] | QY (fluorescence quantum yield, Φfl) ([2]; in aq. PBS, pH 7.4) | Stokes shift ([2]; in aq. PBS, pH 7.4) | ε at absorption max. [1, 3] | ε at absorption max. [1, 4] | Absorption max. ([1]; in methanol) [nm] | ε at absorption max. ([1]; in methanol) [M⁻¹ cm⁻¹] | Emission max. ([2]; in methanol) [nm] | QY (fluorescence quantum yield, Φfl) ([2]; in methanol) | Stokes shift ([2]; in methanol)
1 |  |  | CCN(CC)c1ccc2c(P(=O)(OC)OC)c(-c3nc4ccccc4s3)c(=O)oc2c1 [Compound 1, Dimethyl [3-(benzo[d]thiazol-2-yl)-7-(diethylamino)-2-oxo-2H-chromen-4-yl]phosphonate] | 439 | 24000 M⁻¹ cm⁻¹ | 651 | 0.20 | 212^a nm | 2.55^a ns |  |  |  |  |  |  |  |  |  |  |  | 
2 |  |  | COP(=O)(OC)c1c(-c2nc3ccccc3s2)c(=O)oc2cc(N3CC(O)C3)ccc12 [Compound 2, Dimethyl [3-(benzo[d]thiazol-2-yl)-7-(3-hydroxyazetidin-1-yl)-2-oxo-2H-chromen-4-yl]phosphonate] | 424 | 19000 M⁻¹ cm⁻¹ | 651 | 0.16 | 227^a nm | 1.99^a ns |  |  |  |  |  |  |  |  |  |  |  | 
3 |  |  | CCN(CC)c1ccc2c(P(=O)(OC(C)(C)C)OC(C)(C)C)c(-c3nc4ccccc4s3)c(=O)oc2c1 [Compound 3, Di-tert-butyl [3-(benzo[d]thiazol-2-yl)-7-(diethylamino)-2-oxo-2H-chromen-4-yl]phosphonate] | 434 | 39000 M⁻¹ cm⁻¹ | 658 | 0.29 | 224^a nm | 2.49^a ns |  |  |  |  |  |  |  |  |  |  |  | 
4 | 1.85 ns and 0.93 ns |  | CCN(CC)c1ccc2c(P(=O)(O)O)c(-c3nc4ccccc4s3)c(=O)oc2c1 [Compound 4, [3-(Benzo[d]thiazol-2-yl)-7-(diethylamino)-2-oxo-2H-chromen-4-yl]phosphonic acid] |  |  | 613 | 0.04 |  | 2.91 ns | 419 | 22000 M⁻¹ cm⁻¹ | 613 | 0.04 | 194^b nm |  |  |  |  |  |  | 
5 |  |  | COP(=O)(OC)c1c2ccc(=[N+](C)C)cc-2oc2cc(N(C)C)ccc12.O=C([O-])C(F)(F)F [Compound 5, 9-(Dimethoxyphosphoryl)-3,6-bis(dimethylamino)-9H-xanthenylium trifluoroacetate] |  |  |  |  |  |  |  | 21400 M⁻¹ cm⁻¹ | 667 | 0.16 |  |  |  |  |  |  |  | 
6 |  |  | CC(C)OP(=O)(OC(C)C)c1c2ccc(N(C)C)cc2[o+]c2cc(N(C)C)ccc12.O=C([O-])C(F)(F)F [Compound 6, 9-(Diisopropoxyphosphoryl)-3,6-bis(dimethylamino)-9H-xanthenylium trifluoroacetate] | 617 |  | 649 | 0.38 | 32 nm |  | 629 |  | 668 | 0.12 | 39 nm | 57638 M⁻¹ cm⁻¹ and 57600 M⁻¹ cm⁻¹ | 52254 M⁻¹ cm⁻¹ and 52300 M⁻¹ cm⁻¹ |  |  |  |  | 
7 |  |  | COP(=O)(c1c2ccc(N(C)C)cc2[o+]c2cc(N(C)C)ccc12)N(C(C)C)C(C)C.O=C([O-])C(F)(F)F (stereo not shown) [Compound 7, 9-[(Diisopropylamino)(methoxy)phosphoryl]-3,6-bis(dimethylamino)-9H-xanthenylium trifluoroacetate] | 616 |  | 649 | 0.39 | 33 nm |  | 628 |  | 664 | 0.11 | 36 nm | 52455 M⁻¹ cm⁻¹ and 52500 M⁻¹ cm⁻¹ | 46051 M⁻¹ cm⁻¹ and 46100 M⁻¹ cm⁻¹ |  |  |  |  | 
8 |  |  | CN(C)c1ccc2c(P(=O)(c3ccccc3)c3ccccc3)c3ccc(N(C)C)cc3[o+]c2c1.O=C([O-])C(F)(F)F [Compound 8, 3,6-Bis(dimethylamino)-9-(diphenylphosphoryl)-9H-xanthenylium trifluoroacetate] | 574 |  | 600 | 0.35 | 26 nm |  | 601 |  | 639 | 0.26 | 38 nm |  |  |  |  |  |  | 
9 |  |  | C=CCOC(=O)CCCOP(=O)(OC)[c+]1c2ccc(N(C)C)cc2oc2cc(N(C)C)ccc21 (stereo not shown) [Compound 12, 9-[[4-(Allyloxy)-4-oxobutoxy](methoxy)phosphoryl]-3,6-bis(dimethylamino)-9H-xanthen-9-ylium chloride] | 621 | 42690 M⁻¹ cm⁻¹ and 42700 M⁻¹ cm⁻¹ | 653 | 0.32 | 32 nm |  | 632 | 29540 M⁻¹ cm⁻¹ | 669 | 0.17 | 37 nm |  |  |  |  |  |  | 
10 |  |  | CN(C)c1ccc2c([PH](=O)[O-])c3ccc(N(C)C)cc3[o+]c2c1 [Compound 13, [3,6-Bis(dimethylamino)-9H-xanthenylium-9-yl]phosphinate] |  |  |  |  |  |  | 590 | 59543 M⁻¹ cm⁻¹ and 59400 M⁻¹ cm⁻¹ | 627 | 0.33 | 37^b nm |  |  |  |  |  |  | 
11 |  |  | CCOP(=O)(CC(=O)[O-])c1c2ccc(N(C)C)cc2[o+]c2cc(N(C)C)ccc12 (stereo not shown) [Compound 14, 2-[[3,6-Bis(dimethylamino)-9H-xanthenylium-9-yl](ethoxy)phosphoryl]acetate] | 625 | 22599 M⁻¹ cm⁻¹ | 656 | 0.32 | 31 nm |  | 631 | 47622 M⁻¹ cm⁻¹ | 667 | 0.22 | 36 nm |  |  |  |  |  |  | 
12 |  |  | CN(C)c1ccc2c(P(=O)([O-])CCC(=O)O)c3ccc(=[N+](C)C)cc-3oc2c1 [Compound 15, [3,6-Bis(dimethylamino)-9H-xanthenyhum-9-yl](2-carboxyethyl)phosphinate] |  |  |  |  |  |  | 598 | 52094 M⁻¹ cm⁻¹ and 52100 M⁻¹ cm⁻¹ | 636 | 0.29 | 38^b nm |  |  |  |  |  |  | 
13 |  |  | COP(=O)(C1=c2cc3c4c(c2Oc2c1cc1c5c2CCCN5CCC1)CCC[N+]=4CCC3)N(C(C)C)C(C)C (stereo not shown) [Compound 17, 9-[(Diisopropylamino)(methoxy)phosphoryl]-1H,2H,3H5H,6H,7H,11H,12H,13H,15H,16H,17H-pyrido[3,2,1-ij]quinolizino[1′,9′:6,7,8]chromeno[2,3-f]quinolinium trifluoroacetate] | 649 |  | 679 | 0.25 | 30 nm |  | 661 |  | 696 | 0.11 | 35 nm | 52455 M⁻¹ cm⁻¹ and 53000 M⁻¹ cm⁻¹ | 46976 M⁻¹ cm⁻¹ and 47000 M⁻¹ cm⁻¹ |  |  |  |  | 
14 |  |  | COP(=O)([O-])C1=c2cc3c4c(c2Oc2c1cc1c5c2CCCN5CCC1)CCC[N+]=4CCC3 [Compound 18, Methyl (1H,2H,3H,5H,6H,7H,11H,12H,13H,15H,16H,17H-pyrido[3,2,1-ij]quinolizino[1′,9′:6,7,8]chromeno[2,3-f]quinolinium-9-yl)phosphonate] | 596 | 49565 M⁻¹ cm⁻¹ and 49600 M⁻¹ cm⁻¹ | 623 | 0.85 | 27 nm |  | 630 | 52286 M⁻¹ cm⁻¹ and 52300 M⁻¹ cm⁻¹ | 666 | 0.17 | 36 nm |  |  |  |  |  |  | 
15 |  |  | CCOP(=O)(C1=c2cc3c4c(c2Oc2c1cc1c5c2CCCN5CCC1)CCC[N+]=4CCC3)N(C)CCC(=O)O (stereo not shown) [Compound 19, 9-[[(2-Carboxyethyl)(methyl)amino](ethoxy)phosphoryl]-1H,2H,3H,5H,6H,7H,11H,12H,13H,15H,16H,17H-pyrido[3,2,1-ij]quinolizino[1′,9′:6,7,8]chromeno[2,3-f]quinolinium trifluoroacetate] | 648 | 29373 M⁻¹ cm⁻¹ | 682 | 0.19 | 34 nm |  | 659 | 37214 M⁻¹ cm⁻¹ | 705 | 0.11 | 46 nm |  |  |  |  |  |  | 
16 |  |  | COP(=O)(OC)c1c2ccc(N(C)C)cc2[n+](C)c2cc(N(C)C)ccc12 [Compound 22, 9-(Dimethoxyphosphoryl)-3,6-bis(dimethylamino)-10-methylacridinium trifluoroacetate] |  |  |  |  |  |  |  |  |  |  |  |  |  | 560 | 43000 | 620 | 0.95 | 60^e nm
17 |  |  | CN(C)c1ccc2c(c1)-c1cccc3c(N(C)C)ccc(c13)C2.[O-][Cl+3]([O-])([O-])O [Compound 28d] |  |  |  |  |  |  |  |  |  |  |  |  |  | 646 | 23000 | 673 | 0.25 | 
18 |  | no emission (quencher) | CC1=CC(C)=[N+]2C1=C(P(=O)(OC(C)C)OC(C)C)c1c(C)cc(C)n1[B-]2(F)F [Compound 29, 10-(Diisopropoxyphosphoryl)-5,5-difluoro-1,3,7,9-tetramethyl-5H-dipyrrolo[1,2-c:2′,1′-f][1,3,2]diazaborinin-4-ium-5-uide] | 574 | 33000 M⁻¹ cm⁻¹ | 647 | < 0.002 | 73^a nm |  |  |  |  |  |  |  |  |  |  |  |  | 
